Results on 16 compounds are retold here after patent publication US20090036448A1, “PYRIMIDINE DERIVATIVES AND METHODS OF TREATMENT RELATED TO THE USE THEREOF” (TAISHO PHARMECUTICAL CO., LTD., priority 2004, published 2009).

The test concerns the target MCH receptor (Homo sapiens, UniProt Q99705). Briefly: Receptor binding assay with Radiolabelled MCH Ligand. Further details: expressed in transfected cells; host or cells: 293 cells (human kidney, ATCC), transient transfection; crude membranes. As to conditions: class by percent of control at 10^-7 M or IC50. The gist of the method: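 Membranes from 293 cells transiently transfected with human MCH receptor competed test compounds against a radiolabelled MCH ligand in Tris-HCl pH 7.4 with MgCl2 and EDTA for 60–120 min at room temperature. Filtration and scintillation counting followed, with cold MCH defining nonspecific binding. IC50 came from logit-log plots of %B/B0, and Ki from the Cheng-Prusoff equation.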

Chain of MCH receptor (Q99705 whole entry): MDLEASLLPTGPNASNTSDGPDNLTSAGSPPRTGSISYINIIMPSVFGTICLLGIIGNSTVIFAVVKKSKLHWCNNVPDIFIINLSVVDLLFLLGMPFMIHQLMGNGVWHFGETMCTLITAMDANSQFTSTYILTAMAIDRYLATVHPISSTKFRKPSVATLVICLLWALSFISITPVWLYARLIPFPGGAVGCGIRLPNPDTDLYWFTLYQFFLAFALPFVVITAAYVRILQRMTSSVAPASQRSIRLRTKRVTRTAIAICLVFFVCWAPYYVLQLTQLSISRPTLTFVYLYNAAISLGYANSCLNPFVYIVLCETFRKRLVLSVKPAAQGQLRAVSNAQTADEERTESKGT

`COc1ccc(NC(=S)N[C@H]2CC[C@@H](Nc3cc(N(C)C)nc(C)n3)CC2)cc1OC` [compound 445]: the class was 3 (Class 3: The value of percent of control at 10^−7 M was more than 60% or the value of IC50 was more than 200 nM.). As to `Cc1nc(N[C@H]2CC[C@@H](NC(=O)c3cccnc3Sc3ccccc3)CC2)cc(N(C)C)n1` [compound 266], the class is 3 (Class 3: The value of percent of control at 10^−7 M was more than 60% or the value of IC50 was more than 200 nM.). Consider `Cc1nc(N[C@H]2CC[C@@H](NS(=O)(=O)c3cccc(C#N)c3)CC2)cc(N(C)C)n1` [compound 499], for which the class is listed as 3 (Class 3: The value of percent of control at 10^−7 M was more than 60% or the value of IC50 was more than 200 nM.). Take `CC(=O)c1ccc(OCC(=O)N[C@H]2CC[C@@H](Nc3cc(N(C)C)nc(C)n3)CC2)cc1` [compound 275]: the class was 3 (Class 3: The value of percent of control at 10^−7 M was more than 60% or the value of IC50 was more than 200 nM.).

For `Cc1nc(N[C@H]2CC[C@@H](NS(C)(=O)=O)CC2)cc(N(C)C)n1` [compound 478], the class is given as 3 (Class 3: The value of percent of control at 10^−7 M was more than 60% or the value of IC50 was more than 200 nM.).

As for `CCOC(=O)N[C@H]1CC[C@@H](Nc2cc(N(C)C)nc(C)n2)CC1` [compound 459], the class was 3 (Class 3: The value of percent of control at 10^−7 M was more than 60% or the value of IC50 was more than 200 nM.). The value for `Cc1nc(N[C@H]2CC[C@@H](NC(=O)Nc3cccc4ccccc34)CC2)cc(N(C)C)n1` [compound 432] was 3 (Class 3: The value of percent of control at 10^−7 M was more than 60% or the value of IC50 was more than 200 nM.); that for `COc1ccc(CN[C@H]2CC[C@@H](Nc3cc(N(C)C)nc(C)n3)CC2)cc1OC` [compound 370] was 3 (Class 3: The value of percent of control at 10^−7 M was more than 60% or the value of IC50 was more than 200 nM.); that for `Cc1nc(N[C@H]2CC[C@@H](NS(=O)(=O)c3ccccc3OC(F)(F)F)CC2)cc(N(C)C)n1` [compound 491] was 3 (Class 3: The value of percent of control at 10^−7 M was more than 60% or the value of IC50 was more than 200 nM.). With `Cc1nc(N[C@H]2CC[C@@H](NCCC3CCCC3)CC2)cc(N(C)C)n1` [compound 402], the class is 3 (Class 3: The value of percent of control at 10^−7 M was more than 60% or the value of IC50 was more than 200 nM.). The value for `Cc1nc(N[C@H]2CC[C@@H](NC(=O)c3ccc(SC(F)(F)F)cc3)CC2)cc(N(C)C)n1` [compound 261] was 3 (Class 3: The value of percent of control at 10^−7 M was more than 60% or the value of IC50 was more than 200 nM.); that for `CCCCOc1ccc(S(=O)(=O)N[C@H]2CC[C@@H](Nc3cc(N(C)C)nc(C)n3)CC2)cc1` [compound 494] was 3 (Class 3: The value of percent of control at 10^−7 M was more than 60% or the value of IC50 was more than 200 nM.); that for `Cc1nc(N[C@H]2CC[C@@H](NC(=O)Cc3c[nH]c4ccc(OCc5ccccc5)cc34)CC2)cc(N(C)C)n1` [compound 318] was 3 (Class 3: The value of percent of control at 10^−7 M was more than 60% or the value of IC50 was more than 200 nM.). For the compound `Cc1nc(N[C@H]2CC[C@@H](NC(=O)c3ccccc3CCc3ccccc3)CC2)cc(N(C)C)n1` [compound 305], the class is listed as 3 (Class 3: The value of percent of control at 10^−7 M was more than 60% or the value of IC50 was more than 200 nM.). In the case of `Cc1nc(N[C@H]2CC[C@@H](NC(=O)c3ccc(Br)cc3)CC2)cc(N(C)C)n1` [compound 205], the class is given as 3 (Class 3: The value of percent of control at 10^−7 M was more than 60% or the value of IC50 was more than 200 nM.). The value for `Cc1nc(N[C@H]2CC[C@@H](NCCOc3ccc(Cl)cc3)CC2)cc(N(C)C)n1` [compound 361] was 3 (Class 3: The value of percent of control at 10^−7 M was more than 60% or the value of IC50 was more than 200 nM.).
